Source: patent publication US20230381321A1, “CAMPTOTHECIN CONJUGATES” (priority 2022, published 2023)
Read-outs that look alike come from different tables or passages of the source.

Experiments:
Format in all cases: cell-based
[1] = system: renal carcinoma cells (786-O); assay: In vitro potency (CellTiter-Glo, 96 h) on 786-O; settings: Homo sapiens, 786-0, 96 h, read-out: 786-O IC50
In short: (§1)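 Log-phase cells were seeded 24 h in RPMI 1640 with 20% FBS, then exposed to serially diluted […] for 96 h. Growth inhibition was measured by CellTiter-Glo luminescence.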

[2] = system: melanoma cells (A2058); assay: In vitro potency (CellTiter-Glo, 96 h) on A2058; settings: Homo sapiens, A2058, 96 h, read-out: A2058 IC50
Experimental: (§2) In vitro potency was assessed on multiple cancer cell lines. All cell lines were authenticated by STR profiling at IDEXX Bioresearch and cultured for no more than 2 months after resuscitation. Cells cultured in log-phase growth were seeded for 24 hours in 96-well plates containing […] RPMI 1640 supplemented with 20% FBS. Serial dilutions of antibody-drug conjugates in cell culture media were prepared at 4x working concentrations, and 50 μL of each dilution was added to the 96-well plates. Following addition of test articles, cells were incubated with test articles for 4 days at […]. After 96 hours, growth inhibition was assessed by CellTiterGlo® (Promega, Madison, WI) and luminescence was measured on a plate reader.
(§3) Cell viability was determined by CellTiter-Glo staining after 96h exposure to ADC. ND=Not Determined. In the following tables, “Ex_” refers to a drug linker number. For example, “Ag4-Ex_4a” refers to a conjugate of an Ag4 antibody with drug linker 4a.

[3] = system: pancreatic cancer cells (BxPC3); assay: In vitro potency (CellTiter-Glo, 96 h) on BxPC3; settings: Homo sapiens, BXPC-3, 96 h, read-out: BxPC3 IC50
In short: as §1

[4] = system: non-small-cell lung cancer cells (Calu1); assay: In vitro potency (CellTiter-Glo, 96 h) on Calu1; settings: Homo sapiens, Calu-1, 96 h, read-out: Calu1 IC50
Experimental: as §2, §3

[5] = system: anaplastic large cell lymphoma cells (DEL); assay: In vitro potency (CellTiter-Glo, 96 h) on DEL; settings: 96 h, read-out: DEL IC50
In short: as §1

[6] = system: anaplastic large cell lymphoma cells (DELBVR); assay: In vitro potency (CellTiter-Glo, 96 h) on DELBVR; settings: 96 h, read-out: DELBVR IC50
In short: as §1

[7] = system: anaplastic large cell lymphoma cells (Karpas299); assay: In vitro potency (CellTiter-Glo, 96 h) on Karpas299; settings: Homo sapiens, KARPAS-299, 96 h, read-out: Karpas299 IC50
In short: as §1

[8] = system: Hodgkin's lymphoma cells (L540cy); assay: In vitro potency (CellTiter-Glo, 96 h) on L540cy; settings: L540cy, 96 h, read-out: L540cy IC50
In short: as §1

[9] = In vitro potency (CellTiter-Glo, 96 h) on Ls174T; settings: Homo sapiens, LS174T, read-out: Ls174T IC50
In short: as §1

[10] = system: breast cancer cells (MDA-MB-231); assay: In vitro potency (CellTiter-Glo, 96 h) on MDA-MB-231; settings: read-out: MDAMB 231 IC50
In short: as §1

[11] = system: acute myeloid leukemia cells (MOLM-13); assay: In vitro potency (CellTiter-Glo, 96 h) on MOLM-13; settings: read-out: MOLM-13 IC50
In short: as §1

[12] = system: B-lymphocyte cancer cells (SU-DHL4); assay: In vitro potency (CellTiter-Glo, 96 h) on SU-DHL4; settings: Homo sapiens, SU-DHL-4, 96 h, read-out: SU-DHL-4 IC50
In short: as §1

[13] = CPT free drugs, CellTiter-Glo after 96 h exposure
[14] = Homo sapiens, MDA-MB-231, 96 h, CPT free drugs, CellTiter-Glo after 96 h exposure
[15] = Homo sapiens, MOLM-13, 96 h, CPT free drugs, CellTiter-Glo after 96 h exposure

Row | Structure (SMILES) | IC50 [1, 13] | IC50 [2, 13] | IC50 [3, 13] | IC50 [4, 13] | IC50 [5, 13] | IC50 [6, 13] | IC50 [7, 13] | IC50 [8, 13] | IC50 [9, 13] | IC50 [10, 14] | IC50 [11, 15] | IC50 [12, 13] | IC50 [4] | IC50 ([11]; Homo sapiens, MOLM-13, 96 h) | also measured
1 | CC[C@@]1(O)C(=O)OCc2c1cc1n(c2=O)Cc2c-1nc1cc(F)c(C)c(-c3cccc(O)c3)c1c2CN [Compound 6i] | 5 nM | 2 nM | 10 nM | 26 nM | 1 nM | 1 nM | 4 nM | 3 nM | 10 nM | 11 nM | 2 nM | 2 nM | – | – | –
2 | CC[C@@]1(O)C(=O)OCc2c1cc1n(c2=O)Cc2c-1nc1cc3c(cc1c2CN)CC=C3 [Compound 5] | 16 nM | 7 nM | 40 nM | – | 4 nM | 4 nM | 10 nM | 9 nM | > 1000 nM | 218 nM | – | 7 nM | 129 nM | 258 nM | –
3 | CC[C@@]1(O)C(=O)OCc2c1cc1n(c2=O)Cc2c-1nc1cc(F)c3c(c1c2CN)CCC3 [Compound 2as] | 3 nM | 3 nM | 5 nM | 4 nM | 1 nM | 1 nM | 3 nM | 1 nM | 2 nM | 1 nM | 51 nM | 2 nM | – | – | –
4 | CC[C@@]1(O)C(=O)OCc2c1cc1n(c2=O)Cc2c-1nc1ccc3c(c1c2CN)COC3 [Compound 2aq] | 11 nM | 18 nM | 27 nM | 1 nM | 2 nM | 3 nM | 7 nM | 4 nM | 12 nM | 12 nM | 39 nM | 5 nM | – | – | –
5 | CC[C@@]1(O)C(=O)OCc2c1cc1n(c2=O)Cc2c-1nc1cc(F)c(C)c(C=C(C)C)c1c2CN [Compound 6, (S)-11-(aminomethyl)-4-ethyl-8-fluoro-4-hydroxy-9-methyl-10-(2-methylprop-1-en-1-yl)-1,12-dihydro-14H-pyrano[3′,4′:6,7]indolizino[1,2-b]quinoline-3,14(4H)-dione] | – | – | – | – | – | – | – | – | – | – | – | – | 17 nM | 4 nM | IC50 [1]: 5 nM; IC50 [2]: 5 nM; IC50 [3]: 8 nM; IC50 [5]: 1 nM; IC50 [6]: 3 nM; IC50 [7]: 4 nM; IC50 [8]: 4 nM; IC50 ([9]; 96 h): 21 nM; IC50 ([10]; Homo sapiens, MDA-MB-231, 96 h): 7 nM; IC50 [12]: 2 nM
6 | CC[C@@]1(O)C(=O)OCc2c1cc1n(c2=O)Cc2c-1nc1cc3c(cc1c2CN)CCO3 [Compound 2n, (5S)-14-(aminomethyl)-5-ethyl-5-hydroxy-7,20-dioxa-11,24-diazahexacyclo[11.11.0.02,11.04,9.015,23.017,21]tetracosa-1(24),2,4(9),13,15(23),16,21-heptaene-6,10-dione;2,2,2-trifluoroacetic acid] | – | – | – | – | – | – | – | – | – | – | – | – | 18 nM | 29 nM | IC50 [1]: 5 nM; IC50 [2]: 3 nM; IC50 [3]: 3 nM; IC50 [5]: 1 nM; IC50 [6]: 1 nM; IC50 [7]: 5 nM; IC50 [8]: 2 nM; IC50 ([9]; 96 h): 4 nM; IC50 ([10]; Homo sapiens, MDA-MB-231, 96 h): 8 nM; IC50 [12]: 1 nM
7 | CC[C@@]1(O)C(=O)OCc2c1cc1n(c2=O)Cc2c-1nc1cc3c(c(F)c1c2CN)CCC3 [Compound 5b] | 69 nM | 17 nM | 128 nM | 54 nM | 17 nM | 15 nM | 46 nM | 10 nM | 45 nM | 36 nM | > 1000 nM | 27 nM | – | – | –
8 | CC[C@@]1(O)C(=O)OCc2c1cc1n(c2=O)Cc2c-1nc1ccc3c(c1c2CN)SCC3 [Compound 2av] | 22 nM | 4 nM | 34 nM | 25 nM | 5 nM | 4 nM | 26 nM | 5 nM | 11 nM | 9 nM | 236 nM | 8 nM | – | – | –
9 | CC[C@@]1(O)C(=O)OCc2c1cc1n(c2=O)Cc2c-1nc1cc3c(cc1c2Cn1ccnc1)OCO3 [Compound 7ai] | 12 nM | 3 nM | 17 nM | 81 nM | 1 nM | 3 nM | 6 nM | 4 nM | 8 nM | 52 nM | 9 nM | 3 nM | – | – | –
10 | CC[C@@]1(O)C(=O)OCc2c1cc1n(c2=O)Cc2c-1nc1cc3c(cc1c2CO)CCO3 [Compound 35] | – | – | – | – | – | – | – | – | – | – | – | – | 9 nM | 22 nM | IC50 [1]: 4 nM; IC50 [2]: 2 nM; IC50 [3]: 6 nM; IC50 [5]: 0.6 nM; IC50 [6]: 1 nM; IC50 [7]: 4 nM; IC50 [8]: 2 nM; IC50 ([9]; 96 h): 3 nM; IC50 ([10]; Homo sapiens, MDA-MB-231, 96 h): 5 nM; IC50 [12]: 1 nM
11 | CC[C@@]1(O)C(=O)OCc2c1cc1n(c2=O)Cc2c-1nc1cc3c(cc1c2CN)C(C)CO3 (stereo partly drawn) [Compound 11, (5S)-14-(aminomethyl)-5-ethyl-5-hydroxy-18-methyl-7,20-dioxa-11,24 diazahexacyclo[11.11.0.02,11.04,9.015,23.017,21]tetracosa-1(24),2,4(9),13,15(23),16,21-heptaene-6,10-dione] | 8 nM | 3 nM | 12 nM | 69 nM | 1 nM | 2 nM | 14 nM | 4 nM | > 1000 nM | – | – | 4 nM | – | – | IC50 [10, 13]: 41 nM; IC50 [11, 13]: 108 nM
12 | CC[C@@]1(O)C(=O)OCc2c1cc1n(c2=O)Cc2c-1nc1cc3c(cc1c2Cn1cnc(CO)c1)OCO3 [Compound 7aj] | – | – | – | – | – | – | – | – | – | – | – | – | > 1000 nM | 81 nM | IC50 [1]: 99 nM; IC50 [2]: 57 nM; IC50 [3]: 103 nM; IC50 [5]: 14 nM; IC50 [6]: 16 nM; IC50 [7]: 55 nM; IC50 [8]: 56 nM; IC50 ([9]; 96 h): 64 nM; IC50 ([10]; Homo sapiens, MDA-MB-231, 96 h): 706 nM; IC50 [12]: 34 nM
13 | CC[C@@]1(O)C(=O)OCc2c1cc1n(c2=O)Cc2c-1nc1cc(F)c(C)c(-c3ccccc3)c1c2CN [Compound 6j] | 12 nM | 10 nM | 30 nM | 36 nM | 4 nM | 5 nM | 9 nM | 9 nM | 12 nM | 103 nM | 15 nM | 14 nM | – | – | –
14 | CC[C@@]1(O)C(=O)OCc2c1cc1n(c2=O)Cc2c-1nc1cc(F)c(C)c(C3=CCOCC3)c1c2CN [Compound 6h] | 36 nM | 20 nM | 100 nM | 155 nM | 6 nM | 7 nM | 28 nM | 19 nM | 48 nM | 102 nM | 31 nM | 14 nM | – | – | –
